Measured values: patent publication US7838645B2, “Function of autophagy genes in cell death” (University of Maryland College Park, priority 2004, dated 2010)
Where a SMILES comes first, the peptide text is derived from it. The star is where a group is joined. Cbz = O=C(OCc1ccccc1)*; CH2Cl = ClC*; CH2F = FC*

Experiments:
L929 cells [1] = assay: Cell death analysis (propidium iodide staining, flow cytometry) in L929 cells; type: cell-based, mouse; conditions: for Induction of cell death (% cell loss): 40 hours, FIG. 9
Method: (§1) Cell viability was determined after treatments by staining with propidium iodide (2 μg/mL) and flow cytometric analysis on a FACScan. Percent cell death was quantitated as previously described (26).
In mouse L929 fibroblastic cells, tumor necrosis factor (TNF), oxidants, ceramide, and radiation can induce caspase-independent death (11). […] L929 cells were treated with 1 ul of dimethyl sulfoxide (DMSO) FIG. 1A (a and c) or 20 uM zVAD (b and d) for 24 hours and examined by phase contrast microscopy (a and b); or 4′,6′-diamidino-2-phenylindole-staining and fluorescent microscopy (c and d). Magnification: 200×. […] The percentage of vaculated cells is the fraction of cells that have 10 or more autophagic vacuoles by TEM. Statistical analysis is shown in FIG. 4 and morphometric analysis of zVAD-induced autophagy in L929 cells is quantitated in Table 1 setforth below. […]
L929 cells were treated with 1 ul/ml DMSO, 20 uM zVAD, 20 uM zFA, 20 uM LEHD, 20 uM DEVD, or 20 uM zAAD for 40 hours, and % cell loss was quantified by flow cytometry. […] Because zVAD is a potent inhibitor of caspase-8, it likely exerted its death effect through inhibition of caspase-8.

RAW264.7 cells = assay: Cell loss by flow cytometry in RAW264.7 cells; type: cell-based, mouse; conditions: FIG. 6
Method: as §1
(§2) The RAW264.7 cells were treated with 0.1 ug/ml Wortmannin (WM) or 10 mM 3-methyladenine (3-MA) for 1 hr and the with 100 uM zVAD for 48 hrs, after which cell loss was quantitated by flow cytometry. […] Mouse peritoneal macrophages cells were treated with 0.1 ug/ml Wortmannin (WM) or 10 mM 3-methyladenine (3-MA) for 1 hr and with 100 uM zVAD for 24 hrs, after which cell loss were quantitated by flow cytometry.

[2] = tested on: mouse peritoneal macrophages; assay: Cell loss by flow cytometry in mouse peritoneal macrophages; type: cell-based; conditions: FIG. 7
Method: as §1, §2

L929 cells [3] = assay: Transmission electron microscopy morphometric analysis of autophagy in L929 cells; type: cell-based, mouse; conditions: for Apoptotic cell / Autophagic and apoptotic features / Autophagic cells(total) / Lytic/necrotic cell / Mild autophagy (cell with 10~19 vacuoles) / Moderate autophagy (cell with 20~29 vacuoles) / Normal cells / Severe Autophagy (cell with 30 or more vacuoles) / Vacuolated(but not autophagic): TEM, of total 100
Method: Cells were fixed in 3% glutaraldehyde in 0.1 M MOPS buffer (pH 7.0) for 8 hrs at room temperature, 3% glutaraldehyde/1% paraformaldehyde in 0.1 M MOPS buffer (pH 7.0) for 16 hours at 4° C., post-fixed in 1% osmium tetroxide for 1 hour, embedded in Spurr's resin, sectioned, double stained with Uranyl acetate and Lead citrate, and analyzed using a Zeiss EM 10 transmission electron microscope. For each treatment or control group, at least 100 cells from randomly chosen transmission electron microscopy fields were analyzed for quantification of morphological features. Cells with ≧10 vacuoles were scored as autophagy positive. Cells were stratified as follows: 0 (≦9 vacuoles/cell), 1(10-19 vacuoles/cell), 2 (20-29 vacuoles/cell), 3 (≧30 vacuoles/cell). Scores were ranked and comparisons of treatment to control groups were made using the Mann-Whitney U test using the Statview 5.0.1 program. Statistical analysis of the differences in FIG. 1, panels D, E, F, and G and FIG. 2A, B, D were significant (p<0.0001).
In mouse L929 fibroblastic cells, tumor necrosis factor (TNF), oxidants, ceramide, and radiation can induce caspase-independent death (11). […] L929 cells were treated with 1 ul of dimethyl sulfoxide (DMSO) FIG. 1A (a and c) or 20 uM zVAD (b and d) for 24 hours and examined by phase contrast microscopy (a and b); or 4′,6′-diamidino-2-phenylindole-staining and fluorescent microscopy (c and d). Magnification: 200×. […] The percentage of vaculated cells is the fraction of cells that have 10 or more autophagic vacuoles by TEM. Statistical analysis is shown in FIG. 4 and morphometric analysis of zVAD-induced autophagy in L929 cells is quantitated in Table 1 setforth below.

[4] = tested on: c-Jun N-terminal kinase (JNK); assay: Detection of phosphorylated JNK/SAPK by Western blot in L929 cells; type: cell-based, mouse; conditions: zVAD 24 hrs, 2% FBS, FIG. 2B
Method: L929 cells were treated with DMSO or zVAD for 24 hrs in the presence of 2% FBS. The cell lysate was spun for 10 minutes at 13000 rpm. 20 ul of the c-Jun beads (SAPK/JNK assay kit from Cell Signaling) were added to the supernatant and incubated overnight at 4° C. Beads were washed 4 times with lysis buffer and resuspended in 50 ul of 1× sample buffer. Samples were boiled for 5 minutes and analyzed by SDS-PAGE and Western blot for phosphorylated SAP/JNK by probing with phospho-JNK antibody.
Death receptors can elicit nonapoptotic death through the “receptor-interacting protein” (RIP), a death-domain-containing, serine-threonine kinase (6, 7). […] For example, cells were treated with zVAD after transfection with RIP RNAi or nonspecific (NS) oligonucleotides. Reduction in cell number (solid bars) and the fractions of cells with autophagic features based on TEM (open bars) are shown in FIG. 2A. FIG. 2B is a western blot for phospho-JNK (left lane) or total JNK protein (right lane) after zVAD treatment. zVAD activated c-Jun N-terminal kinase (JNK) that is also activated by RIP in response to cytokines.

RIP = RIP cleavage by caspase-8 (Western blot, FIG. 11); type: cell-based; conditions: cells treated with zVAD
Text: It was observed that the signaling through the serine-threonine kinase RIP is essential for autophagic cell death. When RIP is cleaved and inactivated by caspase 8, then a mechanism is provided for the prevention of autophagic cell death. However, inhibition of caspase 8 allows RIP to transmit the signal needed to kill the cell through the autophagic pathway. […] Clearly, zVAD treatment prevents RIP from constitutive caspase-8 cleavage. The indicated band is the 42 kD proteolytic product that is characteristic of caspase-8 cleavage (1).

Structure (SMILES): Cn1cnc(N)c2ncnc1-2 [3-MA, 3-methyladenine]
- Effect on zVAD-induced cell loss (L929 cells [1]; WM 0.1 ug/ml or 3-MA 10 mM for 1 hour, then 20 uM zVAD for 36 hours, FIG. 1E): reduction in cell loss
- Effect on zVAD-induced cell death (RAW264.7 cells; 0.1 ug/ml WM or 10 mM 3-MA for 1 hr, then 100 uM zVAD for 48 hrs): arrested zVAD-induced cell death
- Effect on zVAD-induced cell death ([2]; 0.1 ug/ml WM or 10 mM 3-MA for 1 hr, then 100 uM zVAD for 24 hrs): arrested zVAD-induced cell death

Structure (SMILES): COC(=O)CCC(NC(=O)C(CC(=O)OC)NC(=O)OCc1ccccc1)C(=O)NC(C(=O)NC(CC(=O)OC)C(=O)CF)C(C)C (stereo not shown) [DEVD, benzyloxycarbonyl-Aspartyl-(O-methyl)-Glutamyl-(O-methyl)-Valyl-Aspartyl-(O-methyl)-fluoromethylketone]
- Induction of cell death (% cell loss) (L929 cells [1]; 20 uM, flow cytometry): no ability to induce cell death

Structure (SMILES): O=C1c2ccccc2-c2n[nH]c3cccc1c23 [JNK inhibitor II, Anthra[1,9-cd]pyrazol-6 (2H)-one 1,9-pyrazoloanthrone]
- Effect on zVAD-induced cell death (% cell loss) (L929 cells [1]; 1 ug/ml inhibitor for 1 hour, then 20 uM zVAD for 40 hours, flow cytometry, FIG. 8): blocked zVAD-induced cell death

Structure (SMILES): COC(=O)CC(NC(=O)C(C)NC(=O)C(C)NC(=O)OCc1ccccc1)C(=O)CCl (stereo not drawn) [ZAAD, benzyloxycarbonyl-Alanyl-Alanyl-Aspartyl-(O-methyl)-chloromethylketone] (Cbz-Ala-Ala-Asp(OMe)-CH2Cl; configuration not given here)
- Induction of cell death (% cell loss) (L929 cells [1]; 20 uM, flow cytometry): no ability to induce cell death

Structure (SMILES): C[C@@H]1C[C@@H]([C@H](O)CC2CC(=O)NC(=O)C2)C(=O)[C@@H](C)C1 [cycloheximide, Cycloheximide]
- Effect of protein synthesis inhibition on zVAD-induced cell death (L929 cells [1]; FIG. 2C): blocked cell death

Structure (SMILES): COC(=O)CC(NC(=O)C(C)NC(=O)C(NC(=O)OCc1ccccc1)C(C)C)C(=O)CF (stereo not drawn) [zVAD, Benzyloxycarbonyl-Valyl-Alanyl-Aspartyl-(O-methyl)-fluoromethylketone] (Cbz-Val-Ala-Asp(OMe)-CH2F; configuration not given here)
- Time course of zVAD induced autophagy (percentage of vacuolated cells, 10 or more autophagic vacuoles by TEM) (L929 cells [3]; FIG. 1D): vacuolated cells accumulated prior to cell death
- Apoptotic cell (L929 cells [3]; zVAD 0 hrs): 0
- Autophagic and apoptotic features (L929 cells [3]; zVAD 0 hrs): 0
- Autophagic cells(total) (L929 cells [3]; zVAD 0 hrs): 0
- Lytic/necrotic cell (L929 cells [3]; zVAD 0 hrs): 0
- Mild autophagy (cell with 10~19 vacuoles) (L929 cells [3]; zVAD 0 hrs): 0
- Moderate autophagy (cell with 20~29 vacuoles) (L929 cells [3]; zVAD 0 hrs): 0
- Normal cells (L929 cells [3]; zVAD 0 hrs): 85
- Severe Autophagy (cell with 30 or more vacuoles) (L929 cells [3]; zVAD 0 hrs): 0
- Vacuolated(but not autophagic) (L929 cells [3]; zVAD 0 hrs): 15
- Apoptotic cell (L929 cells [3]; zVAD 8 hrs): 4
- Autophagic and apoptotic features (L929 cells [3]; zVAD 8 hrs): 1
- Autophagic cells(total) (L929 cells [3]; zVAD 8 hrs): 76
- Lytic/necrotic cell (L929 cells [3]; zVAD 8 hrs): 0
- Mild autophagy (cell with 10~19 vacuoles) (L929 cells [3]; zVAD 8 hrs): 55
- Moderate autophagy (cell with 20~29 vacuoles) (L929 cells [3]; zVAD 8 hrs): 20
- Normal cells (L929 cells [3]; zVAD 8 hrs): 19
- Severe Autophagy (cell with 30 or more vacuoles) (L929 cells [3]; zVAD 8 hrs): 1
- Vacuolated(but not autophagic) (L929 cells [3]; zVAD 8 hrs): 0
- Apoptotic cell (L929 cells [3]; zVAD 12 hrs): 1
- Autophagic and apoptotic features (L929 cells [3]; zVAD 12 hrs): 1
- Autophagic cells(total) (L929 cells [3]; zVAD 12 hrs): 93
- Lytic/necrotic cell (L929 cells [3]; zVAD 12 hrs): 3
- Mild autophagy (cell with 10~19 vacuoles) (L929 cells [3]; zVAD 12 hrs): 24
- Moderate autophagy (cell with 20~29 vacuoles) (L929 cells [3]; zVAD 12 hrs): 59
- Normal cells (L929 cells [3]; zVAD 12 hrs): 2
- Severe Autophagy (cell with 30 or more vacuoles) (L929 cells [3]; zVAD 12 hrs): 10
- Vacuolated(but not autophagic) (L929 cells [3]; zVAD 12 hrs): 0
- Time after which death was complete (L929 cells [1]; 20 uM zVAD, FIG. 1B): 40 h
- Time at which death began after zVAD treatment (L929 cells [1]; 20 uM zVAD, FIG. 1B): 12 h
- Induction of death of L929 cells (L929 cells [1]; 20 uM, 24 hours, microscopy): directly induced the death of L929 cells
- Induction of cell death (% cell loss) (L929 cells [1]; 20 uM, flow cytometry): induced cell death
- Induction of cell death (RAW264.7 cells; 100 uM zVAD for 48 hrs): induced cell death by the autophagic pathway
- Induction of cell death ([2]; 100 uM zVAD for 24 hrs): induced cell death by the autophagic pathway
- Activation of JNK (phospho-JNK Western blot) [4]: activated
- RIP cleavage fragments characteristic of caspase-8 activity (RIP): no cleaved fragments were found
